For four molecules, relative viability results are on record in the supplement of paper PMC10307832.

One test relates to NCI-H1666. As to the kind of experiment: relative viability (nuclei count vs DMSO), 5 days (fraction); higher = more cells survive. Conditions: first compound 0.1265 µM. The method in brief:
(§1)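 Each reported value is a median over duplicate plates. It expresses relative viability: treated-well nuclei count divided by vehicle-well nuclei count. Lung cancer cell lines in 1536-well plates were dosed by pin tool a day after seeding, alone with one drug or with a fixed anchor-drug dose plus five library-drug doses (not always all listed) in √10 steps, and nuclei were counted after 5 days.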
In turn, `Clc1ccc(Nc2nnc(Cc3ccncc3)c3ccccc23)cc1` [Vatalanib] + N=C(N)NC(=N)NCCc1ccccc1 [Phenformin] (partner 250 µM) yielded a relative viability of 0.566.
The same measure, in the same setting: in the case of `Clc1ccc(Nc2nnc(Cc3ccncc3)c3ccccc23)cc1` [Vatalanib] + Nc1nc2[nH]cc(CCc3ccc(C(=O)N[C@@H](CCC(=O)O)C(=O)O)cc3)c2c(=O)[nH]1 [Pemetrexed] (partner 0.2 µM) it was 0.844.

The test is the same for the next values; noted with them: first compound 0.4 µM.
`COc1cc(N2CCC(C(N)=O)CC2)ccc1Nc1nc(N)c(Cl)c(Nc2ccccc2S(=O)(=O)C(C)C)n1` [HG-5-88-01] + N=C(N)NC(=N)NCCc1ccccc1 [Phenformin] (partner 250 µM) gave a relative viability of 0.544.
Same read-out and setting: in the case of `Clc1ccc(Nc2nnc(Cc3ccncc3)c3ccccc23)cc1` [Vatalanib] + COc1cccc2cc(-c3nc([C@H]4CC[C@H](C(=O)O)CC4)n4ncnc(N)c34)[nH]c12 [OSI-027] (partner 0.5 µM) it was 0.883; in that of `Clc1ccc(Nc2nnc(Cc3ccncc3)c3ccccc23)cc1` [Vatalanib] + N=C(N)NC(=N)NCCc1ccccc1 [Phenformin] (partner 250 µM), 0.449.
On the same count and under the same terms, to `Clc1ccc(Nc2nnc(Cc3ccncc3)c3ccccc23)cc1` [Vatalanib] + Nc1nc2[nH]cc(CCc3ccc(C(=O)N[C@@H](CCC(=O)O)C(=O)O)cc3)c2c(=O)[nH]1 [Pemetrexed] (partner 0.2 µM) belongs 0.843.

Still in this test, the particulars now being: first compound 1.265 µM.
As to `COc1cc(N2CCC(C(N)=O)CC2)ccc1Nc1nc(N)c(Cl)c(Nc2ccccc2S(=O)(=O)C(C)C)n1` [HG-5-88-01] + N=C(N)NC(=N)NCCc1ccccc1 [Phenformin] (partner 250 µM), the relative viability stood at 0.558.
Same read-out and setting: in the case of `Clc1ccc(Nc2nnc(Cc3ccncc3)c3ccccc23)cc1` [Vatalanib] + COc1cccc2cc(-c3nc([C@H]4CC[C@H](C(=O)O)CC4)n4ncnc(N)c34)[nH]c12 [OSI-027] (partner 0.5 µM) it was 0.802; in that of `Clc1ccc(Nc2nnc(Cc3ccncc3)c3ccccc23)cc1` [Vatalanib] + N=C(N)NC(=N)NCCc1ccccc1 [Phenformin] (partner 250 µM), 0.519.
On the same count and under the same terms, in the case of `Clc1ccc(Nc2nnc(Cc3ccncc3)c3ccccc23)cc1` [Vatalanib] + Nc1nc2[nH]cc(CCc3ccc(C(=O)N[C@@H](CCC(=O)O)C(=O)O)cc3)c2c(=O)[nH]1 [Pemetrexed] (partner 0.2 µM) it was 0.799.

The test is the same for the next values; noted with them: first compound 4 µM.
As for `COc1cc(N2CCC(C(N)=O)CC2)ccc1Nc1nc(N)c(Cl)c(Nc2ccccc2S(=O)(=O)C(C)C)n1` [HG-5-88-01] + N=C(N)NC(=N)NCCc1ccccc1 [Phenformin] (partner 250 µM), the relative viability was found to be 0.459.
The same measure, in the same setting: to `Clc1ccc(Nc2nnc(Cc3ccncc3)c3ccccc23)cc1` [Vatalanib] + COc1cccc2cc(-c3nc([C@H]4CC[C@H](C(=O)O)CC4)n4ncnc(N)c34)[nH]c12 [OSI-027] (partner 0.5 µM) belongs 0.82.
Still for that read-out and setting: in the case of `Clc1ccc(Nc2nnc(Cc3ccncc3)c3ccccc23)cc1` [Vatalanib] + N=C(N)NC(=N)NCCc1ccccc1 [Phenformin] (partner 250 µM) it was 0.559.
Still for that read-out and setting: to `Clc1ccc(Nc2nnc(Cc3ccncc3)c3ccccc23)cc1` [Vatalanib] + Nc1nc2[nH]cc(CCc3ccc(C(=O)N[C@@H](CCC(=O)O)C(=O)O)cc3)c2c(=O)[nH]1 [Pemetrexed] (partner 0.2 µM) belongs 0.901.

In the next test the test system is EKVX. The test is described as above. The note with it: first compound 0.04 µM. The method, boiled down:
as §1
In turn, `COc1cc(N2CCC(C(N)=O)CC2)ccc1Nc1nc(N)c(Cl)c(Nc2ccccc2S(=O)(=O)C(C)C)n1` [HG-5-88-01] + N=C(N)NC(=N)NCCc1ccccc1 [Phenformin] (partner 250 µM) returned a relative viability of 0.276.
With `Clc1ccc(Nc2nnc(Cc3ccncc3)c3ccccc23)cc1` [Vatalanib] + COc1cccc2cc(-c3nc([C@H]4CC[C@H](C(=O)O)CC4)n4ncnc(N)c34)[nH]c12 [OSI-027] (partner 0.5 µM), the relative viability is 0.743.
As for `Clc1ccc(Nc2nnc(Cc3ccncc3)c3ccccc23)cc1` [Vatalanib] + N=C(N)NC(=N)NCCc1ccccc1 [Phenformin] (partner 250 µM), the relative viability came out at 0.232.
On the same count and under the same terms, in the case of `Clc1ccc(Nc2nnc(Cc3ccncc3)c3ccccc23)cc1` [Vatalanib] + Nc1nc2[nH]cc(CCc3ccc(C(=O)N[C@@H](CCC(=O)O)C(=O)O)cc3)c2c(=O)[nH]1 [Pemetrexed] (partner 0.2 µM) it was 0.416.

Staying with this test, now noted: first compound 0.1265 µM.
As to `COc1cc(N2CCC(C(N)=O)CC2)ccc1Nc1nc(N)c(Cl)c(Nc2ccccc2S(=O)(=O)C(C)C)n1` [HG-5-88-01] + N=C(N)NC(=N)NCCc1ccccc1 [Phenformin] (partner 250 µM), the relative viability came out at 0.262.
Same read-out and setting: in the case of `Clc1ccc(Nc2nnc(Cc3ccncc3)c3ccccc23)cc1` [Vatalanib] + COc1cccc2cc(-c3nc([C@H]4CC[C@H](C(=O)O)CC4)n4ncnc(N)c34)[nH]c12 [OSI-027] (partner 0.5 µM) it was 0.663; in that of `Clc1ccc(Nc2nnc(Cc3ccncc3)c3ccccc23)cc1` [Vatalanib] + N=C(N)NC(=N)NCCc1ccccc1 [Phenformin] (partner 250 µM), 0.236; in that of `Clc1ccc(Nc2nnc(Cc3ccncc3)c3ccccc23)cc1` [Vatalanib] + Nc1nc2[nH]cc(CCc3ccc(C(=O)N[C@@H](CCC(=O)O)C(=O)O)cc3)c2c(=O)[nH]1 [Pemetrexed] (partner 0.2 µM), 0.425.

The test is the same for the next values; noted with them: first compound 0.4 µM.
`COc1cc(N2CCC(C(N)=O)CC2)ccc1Nc1nc(N)c(Cl)c(Nc2ccccc2S(=O)(=O)C(C)C)n1` [HG-5-88-01] + N=C(N)NC(=N)NCCc1ccccc1 [Phenformin] (partner 250 µM): the relative viability is 0.204.
Still for that read-out and setting: to `Clc1ccc(Nc2nnc(Cc3ccncc3)c3ccccc23)cc1` [Vatalanib] + COc1cccc2cc(-c3nc([C@H]4CC[C@H](C(=O)O)CC4)n4ncnc(N)c34)[nH]c12 [OSI-027] (partner 0.5 µM) belongs 0.663.
Take `Clc1ccc(Nc2nnc(Cc3ccncc3)c3ccccc23)cc1` [Vatalanib] + N=C(N)NC(=N)NCCc1ccccc1 [Phenformin] (partner 250 µM): the relative viability was 0.205.
Same read-out and setting: to `Clc1ccc(Nc2nnc(Cc3ccncc3)c3ccccc23)cc1` [Vatalanib] + Nc1nc2[nH]cc(CCc3ccc(C(=O)N[C@@H](CCC(=O)O)C(=O)O)cc3)c2c(=O)[nH]1 [Pemetrexed] (partner 0.2 µM) belongs 0.393.

The test is the same for the next values; noted with them: first compound 1.265 µM.
Turning to `Clc1ccc(Nc2nnc(Cc3ccncc3)c3ccccc23)cc1` [Vatalanib] + Nc1nc2[nH]cc(CCc3ccc(C(=O)N[C@@H](CCC(=O)O)C(=O)O)cc3)c2c(=O)[nH]1 [Pemetrexed] (partner 0.2 µM), the relative viability amounted to 0.339.

Still in this test, the particulars now being: first compound 4 µM.
In turn, `COc1cc(N2CCC(C(N)=O)CC2)ccc1Nc1nc(N)c(Cl)c(Nc2ccccc2S(=O)(=O)C(C)C)n1` [HG-5-88-01] + N=C(N)NC(=N)NCCc1ccccc1 [Phenformin] (partner 250 µM) displayed a relative viability of 0.226.
On the same count and under the same terms, to `Clc1ccc(Nc2nnc(Cc3ccncc3)c3ccccc23)cc1` [Vatalanib] + COc1cccc2cc(-c3nc([C@H]4CC[C@H](C(=O)O)CC4)n4ncnc(N)c34)[nH]c12 [OSI-027] (partner 0.5 µM) belongs 0.643; to `Clc1ccc(Nc2nnc(Cc3ccncc3)c3ccccc23)cc1` [Vatalanib] + N=C(N)NC(=N)NCCc1ccccc1 [Phenformin] (partner 250 µM), 0.212.
